How the values were obtained:
[1] = system: Strain 1; assay: Survival of isolated bacteria in nutrient broth under a CO2 atmosphere at 45° C., colony count on agar plates; format: cell-based
Experimental: (§1) A set of representative bacterial strains was isolated from a white water sample from a Swedish recycled pulp mill. The sample originally yielded 70 bacterial strains which each represented a group of different bacteria, which grew under similar conditions. The strains were tested on different media and their oxygen demands were studied. The results gave an indication of eight main groups. […] Those three groups were put together to one large group.
(§2) From this dominating group, one strain was chosen for the carbon dioxide experiments. Two other strains from another recycled pulp mill were included in the experiments.
(§3) Glass bottles were tempered to 45° C. and CO2 was added to create a carbon dioxide atmosphere. Bacteria from the three isolated strains were added to separate bottles together with a nutrient broth. A first sample representing “0 min” was taken out immediately from each bottle and then at a number of occasions during the next three hours. Each sample was diluted in dilution series with dilution 1/10 in six steps (10^1-10^6) and grown on agar plates. The plates were incubated at 45° C. for two days, after which the number of colonies were counted and related to the dilution.

[2] = system: Strain 2; assay: as above; format: cell-based
Experimental: as §1, §2, §3

[3] = system: Strain 3; assay: as above; format: cell-based
Experimental: as §1, §2, §3

[4] = system: three isolated strains; assay: Survival under a CO2 atmosphere, average of the three isolated strains; format: cell-based, bacteria; conditions: for percentage of surviving cells, Average: 45° C.
Experimental: as §1, §2, §3

[5] = system: microbial activity during storage; assay: Full-scale mill trial, carbon dioxide introduced just prior to the pulp storage tower; conditions: 1-2 kg CO2/ton pulp just prior to the storage tower, chemical pulp
Experimental: A mill produced wood-free paper from chemical pulp. At the time of the trials, the mill stored pulp for long periods of time in storage towers prior to the stock preparation. The storage caused problems with bad smell and black spots in the pulp, which was believed to be caused by high microbial activity during storage.
A full-scale trial of treatment with a gaseous inhibitor was performed. Thus, carbon dioxide gas was introduced in an amount of 1-2 kg CO2/ton pulp just prior to the storage tower.

For `O=C=O` [CO2, carbon dioxide], the “percentage of surviving cells” value ([1]; Strain 1, 0 min) was 100%, the “percentage of surviving cells” value ([1]; Strain 1, 10 min) was 75% and the “percentage of surviving cells” value ([1]; Strain 1, 20 min) was 34%. For the same compound, the “percentage of surviving cells” value ([1]; Strain 1, 30 min) was 73%, the “percentage of surviving cells” value ([1]; Strain 1, 40 min) was 50% and the “percentage of surviving cells” value ([1]; Strain 1, 50 min) was 61%. The “percentage of surviving cells” value ([1]; Strain 1, 60 min) was 59%, the “percentage of surviving cells” value ([1]; Strain 1, 80 min) was 39% and the “percentage of surviving cells” value ([1]; Strain 1, 100 min) was 16%. The “percentage of surviving cells” value ([1]; Strain 1, 120 min) was 18%, the “percentage of surviving cells” value ([1]; Strain 1, 140 min) was 5% and the “percentage of surviving cells” value ([1]; Strain 1, 160 min) was 4%. The “percentage of surviving cells” value ([1]; Strain 1, 180 min) was 9%, the “percentage of surviving cells” value ([2]; Strain 2, 0 min) was 100% and the “percentage of surviving cells” value ([2]; Strain 2, 10 min) was 141%. For the same compound, the “percentage of surviving cells” value ([2]; Strain 2, 20 min) was 76%, the “percentage of surviving cells” value ([2]; Strain 2, 30 min) was 137% and the “percentage of surviving cells” value ([2]; Strain 2, 40 min) was 48%. The “percentage of surviving cells” value ([2]; Strain 2, 50 min) was 94%, the “percentage of surviving cells” value ([2]; Strain 2, 60 min) was 46% and the “percentage of surviving cells” value ([2]; Strain 2, 80 min) was 88%. The “percentage of surviving cells” value ([2]; Strain 2, 100 min) was 55%, the “percentage of surviving cells” value ([2]; Strain 2, 120 min) was 43% and the “percentage of surviving cells” value ([2]; Strain 2, 140 min) was 35%. For the same compound, the “percentage of surviving cells” value ([2]; Strain 2, 160 min) was 41%, the “percentage of surviving cells” value ([2]; Strain 2, 180 min) was 24% and the “percentage of surviving cells” value ([3]; Strain 3, 0 min) was 100%. The “percentage of surviving cells” value ([3]; Strain 3, 10 min) was 92%, the “percentage of surviving cells” value ([3]; Strain 3, 20 min) was 77% and the “percentage of surviving cells” value ([3]; Strain 3, 30 min) was 58%. The “percentage of surviving cells” value ([3]; Strain 3, 40 min) was 47%, the “percentage of surviving cells” value ([3]; Strain 3, 50 min) was 36% and the “percentage of surviving cells” value ([3]; Strain 3, 60 min) was 67%. For the same compound, the “percentage of surviving cells” value ([3]; Strain 3, 80 min) was 44%, the “percentage of surviving cells” value ([3]; Strain 3, 100 min) was 42% and the “percentage of surviving cells” value ([3]; Strain 3, 120 min) was 16%. The “percentage of surviving cells” value ([3]; Strain 3, 140 min) was 7%, the “percentage of surviving cells” value ([3]; Strain 3, 160 min) was 4% and the “percentage of surviving cells” value ([3]; Strain 3, 180 min) was 2%. For the same compound, the “percentage of surviving cells, Average” value ([4]; Average of Strains 1-3, 0 min) was 100%, the “percentage of surviving cells, Average” value ([4]; Average of Strains 1-3, 10 min) was 103% and the “percentage of surviving cells, Average” value ([4]; Average of Strains 1-3, 20 min) was 62%. For the same compound, the “percentage of surviving cells, Average” value ([4]; Average of Strains 1-3, 30 min) was 89%, the “percentage of surviving cells, Average” value ([4]; Average of Strains 1-3, 40 min) was 48% and the “percentage of surviving cells, Average” value ([4]; Average of Strains 1-3, 50 min) was 64%. For the same compound, the “percentage of surviving cells, Average” value ([4]; Average of Strains 1-3, 60 min) was 57%, the “percentage of surviving cells, Average” value ([4]; Average of Strains 1-3, 80 min) was 57% and the “percentage of surviving cells, Average” value ([4]; Average of Strains 1-3, 100 min) was 38%. The “percentage of surviving cells, Average” value ([4]; Average of Strains 1-3, 120 min) was 47%, the “percentage of surviving cells, Average” value ([4]; Average of Strains 1-3, 140 min) was 16% and the “percentage of surviving cells, Average” value ([4]; Average of Strains 1-3, 160 min) was 16%. For the same compound, the “percentage of surviving cells, Average” value ([4]; Average of Strains 1-3, 180 min) was 12%, the bacteria survived ([4]; after 2 hours) was “about 50%” and the bacteria survived ([4]; after 3 hours) was “more than 10%”. The bacteria survived ([4]; after approximately 1 hour) was “about 60%”, the “number of black spots in the pulp” value [5] was “reduced” and the “pulp's smell” value [5] was “reduced”.

— patent US20030155090A1, “Process for controlling microbial growth” (priority 2000, published 2003)
